Measurements taken from patent publication US7223839B2, “Histamine receptor H3 polynucleotides” (Merck & Co., Inc., priority 2001, dated 2007).

Key:
H3b variant = H3b variant (Homo sapiens, UniProt Q9Y5N1, E19D); conditions: COS-7 cells transfected with H3b; 1 μM BODIPY-L-Histamine or Fluorescein Histamine in PBS, 37° C., 30 min; compared with H3a wild type
Protocol: (§1) The full length wild type receptor (H3a) and receptor variants H3g and H3h, as well as the variant H3b (which contains the 240 base, 80 amino acid deletion in intracellular loop 3 (i3) but not the N-terminal 108 base, 36 amino acid deletion), were cloned in pCDNA3.0 eukaryotic expression vector for expression in COS-7 cells. The COS-7 cells grown in culture chambers were transfected with 2 μg of plasmid DNA containing one of the H3 receptor or receptor variants with superfect (Qiagen) transfection reagent.
(§2) Binding of Histamine to receptor or receptor variant was determined by BODIPY-L-Histamine or Fluorescein Histamine (Molecular Probes). Briefly, the transfected cells were washed with PBS and 1 μM of BODIPY-L-Histamine or Fluorescein Histamine in PBS was added to the cells and incubated at 37° C. for 30 min. Unbound fluorescent labeled histamine was washed in cold PBS and the slides were examined immediately under a fluorescent microscope.

H3g receptor variant = H3g receptor variant (Homo sapiens, UniProt Q9Y5N1, DEL7-42); conditions: COS-7 cells transfected with H3g; 1 μM BODIPY-L-Histamine or Fluorescein Histamine in PBS, 37° C., 30 min; compared with H3a wild type
Protocol: as §1, §2

H3h receptor variant = H3h receptor variant (Homo sapiens, UniProt Q9Y5N1, DEL7-42); conditions: COS-7 cells transfected with H3h; 1 μM BODIPY-L-Histamine or Fluorescein Histamine in PBS, 37° C., 30 min; compared with H3a wild type
Protocol: as §1, §2

Sequence of H3b variant (Q9Y5N1 1-365 isoform Q9Y5N1-3 E19D): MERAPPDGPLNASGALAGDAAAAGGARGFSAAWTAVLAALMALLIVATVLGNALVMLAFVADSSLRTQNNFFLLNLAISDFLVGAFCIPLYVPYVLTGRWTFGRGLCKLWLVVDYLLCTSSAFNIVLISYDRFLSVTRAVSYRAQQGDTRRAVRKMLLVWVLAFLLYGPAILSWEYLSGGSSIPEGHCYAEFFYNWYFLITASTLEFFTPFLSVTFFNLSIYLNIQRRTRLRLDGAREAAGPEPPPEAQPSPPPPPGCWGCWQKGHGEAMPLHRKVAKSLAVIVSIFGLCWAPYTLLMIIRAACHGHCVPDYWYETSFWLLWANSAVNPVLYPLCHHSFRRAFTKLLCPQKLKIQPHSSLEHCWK
Sequence of H3g receptor variant (Q9Y5N1 with tags, fused parts or gaps DEL7-42): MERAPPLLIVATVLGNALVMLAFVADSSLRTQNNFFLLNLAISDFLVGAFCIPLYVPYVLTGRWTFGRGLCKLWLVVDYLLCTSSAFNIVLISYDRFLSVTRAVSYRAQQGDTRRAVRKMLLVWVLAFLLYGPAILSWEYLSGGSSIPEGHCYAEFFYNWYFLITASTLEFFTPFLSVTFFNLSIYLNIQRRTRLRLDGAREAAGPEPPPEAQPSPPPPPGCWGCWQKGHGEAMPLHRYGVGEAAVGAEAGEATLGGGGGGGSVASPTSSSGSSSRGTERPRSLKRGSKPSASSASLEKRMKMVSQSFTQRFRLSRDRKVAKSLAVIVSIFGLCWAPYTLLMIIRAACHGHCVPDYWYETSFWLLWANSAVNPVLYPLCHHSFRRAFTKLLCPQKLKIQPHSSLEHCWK
Sequence of H3h receptor variant (Q9Y5N1 with tags, fused parts or gaps isoform Q9Y5N1-3 DEL7-42): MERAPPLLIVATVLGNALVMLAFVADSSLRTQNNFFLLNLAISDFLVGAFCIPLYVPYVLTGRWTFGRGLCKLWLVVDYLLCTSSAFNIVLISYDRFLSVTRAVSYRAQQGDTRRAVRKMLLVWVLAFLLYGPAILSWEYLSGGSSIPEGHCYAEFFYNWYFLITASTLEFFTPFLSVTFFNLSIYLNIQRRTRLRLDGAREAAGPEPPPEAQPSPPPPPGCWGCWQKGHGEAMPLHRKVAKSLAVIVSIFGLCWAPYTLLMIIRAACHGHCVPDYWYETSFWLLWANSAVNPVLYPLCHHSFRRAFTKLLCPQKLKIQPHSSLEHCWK

**Q.** How did the histamine binding (H3b variant) turn out when `NCCc1c[nH]cn1` [histamine] was run?
**A.** comparable to the cell transfected with the H3a wild type receptor

**Q.** What about the histamine binding (H3g receptor variant) of the same molecule?
**A.** comparable to the cell transfected with the H3a wild type receptor

**Q.** What about the histamine binding (H3h receptor variant) of the same molecule?
**A.** comparable to the cell transfected with the H3a wild type receptor
